Patent US8444858B2, “Control of development of biofilms in industrial process water” (A.Y. Laboratories Ltd., priority 2001, dated 2013)
Like-named read-outs stand apart in the source and are kept apart here.

Tests used:
[1] = De-inking plant field trial, residual H2O2, residual biofilm inhibiting substance and H2O2 consumption
Method: A de-inking system had been using 7-10 kg H2O2 per ton of waste paper.
The reaction pH was Maintained at 9.8-10.0. The Production process was controlled to ensure synchronous metering of the two chemicals, continuous mixing at the predetermined molar ratio and reproducible production of a stable biofilm inhibiting substance stock solution for the duration of the trial and longer. […] After 850 minutes the dosing rate was reduced to 85 g/ton expressed as total Cl2 by feeding the biofilm inhibiting substance semi-continuously. Various parameters were monitored during start-up of the trial: Residual biofilm inhibiting substance was measured (using a Hach pocket colorimeter, total Cl2, based on the DPD method adapted from Standard Methods for Examination of Waste and Waste Water). […] When necessary, samples were diluted with DI water.

biofilm [2] = experiment: Waste water fouling control in a 7 km pipe, Hazen-Williams coefficient
Method: Treated wastewater was piped from a wastewater treatment plant to a location 7 kilometers away.
(The Hazen-Williams coefficient is used to express water flow through industrial pipes. It is calculated using the formula
[formula] wherein P is the friction pressure drop expressed in pounds per square inch per 1000 feet of pipe length, B is the flow rate in barrels per hour, s is the specific gravity of the liquid, C=a friction factor (the Hazen-Williams coefficient), and d is the internal diameter of the pipe in inches. P and B are measured for a given pipe, s and d are treated as constants, and C is calculated. The results are presented as the Hazen-Williams coefficient.
Waste water (up to 10 m^3/h) was used to appropriately dilute both chemicals. An on-line pH meter controlled the production process and the hypochlorite feeding rate to ensure the production of a stable biofilm inhibiting substance. The biofilm inhibiting substance was injected into the treated waste pipe as it was produced. Concentration of the biofilm inhibiting substance stock solution was 3000-4000 ppm; the pH was maintained at 9.5-10.

[3] = system: microorganisms, principally bacteria; conditions: for silo/slime formers: Plate Count agar with high excess of glucose; for silo/total count: R2A Agar
Method: Process water samples were drawn and immediately inactivated with sodium thiosulfate to degrade any residue of the biofilm inhibiting substance. Samples were then serially ten-fold diluted in a Trypton (DIFCO) saline dilution medium. The diluted samples were plated in molten R2A Agar (hereinafter=“total count”) and in molten Plate Count agar containing a high excess of glucose (hereinafter “slime formers”). The agar solidified at room temperature and the plates were incubated at 35° C. for 48 h.

biofilm [4] = experiment: Pilot plant wastewater pipes, difference in Hazen-Williams coefficient treated vs control pipe; conditions: for HW Diff. treated pipe - Control: single 3 h treatment on day 1 at 10 ppm as total chlorine
Method: Treated wastewater was pumped through several pipes of 10 m length and 4 inches inner diameter in a pilot plant. […] Pressure drop through each pipe was monitored on-line, and average HW coefficients were calculated.
The biofilm inhibiting substance in this example was produced as follows, using a small feeding system was built specifically for this trial. […] The concentration of the biofilm inhibiting substance pre-injection solution was ˜3600 ppm and the pH was 9.2-9.6. […]

[5] = day 1 of trial, cleaning period
[6] = day 2 of trial, cleaning period
[7] = day 3 of trial, cleaning period
[8] = day 4 of trial, cleaning period
[9] = day 6 of trial, cleaning period
[10] = day 7 of trial, cleaning period
[11] = day 8 of trial, cleaning period
[12] = day 9 of trial, cleaning period
[13] = day 10 of trial, cleaning period
[14] = day 13 of trial, cleaning period
[15] = day 16 of trial, clean paper machine
[16] = day 17 of trial, clean paper machine
[17] = day 20 of trial, clean paper machine
[18] = day 21 of trial, clean paper machine
[19] = day 24 of trial, clean paper machine
[20] = day 27 of trial, clean paper machine

bromide activated chloramine [Fuzzicide BAC]
H2O2 feed rate maintaining de-inking bleaching targets ([1]; after a few more days of semi-continuous dosing): ~2.2 kg/ton | feed rate of H2O2 needed in order to maintain bleaching set point ([1]; after about 48 hours of semi-continuous dosing, before trial 7-10 kg H2O2 per ton of waste paper): ~4 kg/ton | Hazen-Williams coefficient (HW) maintenance (biofilm [2]; 10 ppm as total chlorine for three hours once a week, over a period of months, after cleaning): constant value | Hazen-Williams coefficient (HW) (biofilm [2]; 10 ppm as total chlorine once a day for three hours for 6 consecutive days, HW before ~90): ~104 | Hazen-Williams coefficient (HW) (biofilm [2]; combination of pigging and 10 ppm (as total Cl2) once a day for three hours, HW before ~104): ~116 | silo/slime formers [3, 5]: 1.0 × 10^1 cfu | silo/total count [3, 5]: 1 × 10^0 cfu | silo/slime formers [3, 6]: 5.92 × 10^3 cfu | silo/total count [3, 6]: 5.68 × 10^4 cfu | silo/slime formers [3, 7]: 2.0 × 10^2 cfu | silo/total count [3, 7]: 4.8 × 10^4 cfu | silo/slime formers [3, 8]: 1.0 × 10^0 cfu | silo/total count [3, 8]: 7.6 × 10^3 cfu | silo/slime formers [3, 9]: 1.2 × 10^2 cfu | silo/total count [3, 9]: 3.8 × 10^3 cfu | silo/slime formers [3, 10]: 1.0 × 10^0 cfu | silo/total count [3, 10]: 4.0 × 10^3 cfu | silo/slime formers [3, 11]: 4.0 × 10^1 cfu | silo/total count [3, 11]: 1.68 × 10^3 cfu | silo/slime formers [3, 12]: 2.2 × 10^2 cfu | silo/total count [3, 12]: 5.0 × 10^3 cfu | silo/slime formers [3, 13]: 1.0 × 10^0 cfu | silo/total count [3, 13]: 1.18 × 10^3 cfu | silo/slime formers [3, 14]: 1.0 × 10^1 cfu | silo/total count [3, 14]: 2.4 × 10^3 cfu | silo/slime formers [3, 15]: 1.0 × 10^0 cfu | silo/total count [3, 15]: 2.0 × 10^2 cfu | silo/slime formers [3, 16]: 1.0 × 10^0 cfu | silo/total count [3, 16]: 6.0 × 10^1 cfu | silo/slime formers [3, 17]: 1.0 × 10^0 cfu | silo/total count [3, 17]: 3.0 × 10^2 cfu | silo/slime formers [3, 18]: 1.0 × 10^0 cfu | silo/total count [3, 18]: 7.5 × 10^2 cfu | silo/slime formers [3, 19]: 1.0 × 10^0 cfu | silo/total count [3, 19]: 1.0 × 10^2 cfu | silo/slime formers [3, 20]: 1.0 × 10^0 cfu | silo/total count [3, 20]: 1.1 × 10^2 cfu | viable counts in process water samples taken from the silo ([3]; initial cleaning period, irrespective of high or low residue of Fuzzicide BAC): 10^3-10^4 viable cells per ml | HW Diff. treated pipe - Control (biofilm [4]; day 1): 14.3 | HW Difference, Fuzzicide BAC - Control (biofilm [4]; day 1 of trial (treatment day), 10 ppm as total chlorine for 3 h three times a week): 10.12 | HW Diff. treated pipe - Control (biofilm [4]; day 2): 13.7 | HW Difference, Fuzzicide BAC - Control (biofilm [4]; day 2 of trial, 10 ppm as total chlorine for 3 h three times a week): 11.25 | HW Diff. treated pipe - Control (biofilm [4]; day 3): 12.8 | HW Difference, Fuzzicide BAC - Control (biofilm [4]; day 3 of trial, 10 ppm as total chlorine for 3 h three times a week): 11.62 | HW Diff. treated pipe - Control (biofilm [4]; day 4): 16.5 | HW Difference, Fuzzicide BAC - Control (biofilm [4]; day 4 of trial, 10 ppm as total chlorine for 3 h three times a week): 13.04 | HW Diff. treated pipe - Control (biofilm [4]; day 5): 16.0 | HW Difference, Fuzzicide BAC - Control (biofilm [4]; day 5 of trial (treatment day), 10 ppm as total chlorine for 3 h three times a week): 12.35 | HW Diff. treated pipe - Control (biofilm [4]; day 6): 16.55 | HW Difference, Fuzzicide BAC - Control (biofilm [4]; day 6 of trial, 10 ppm as total chlorine for 3 h three times a week): 13.76 | HW Diff. treated pipe - Control (biofilm [4]; day 7): 15.8 | HW Difference, Fuzzicide BAC - Control (biofilm [4]; day 7 of trial, 10 ppm as total chlorine for 3 h three times a week): 15.13 | HW Diff. treated pipe - Control (biofilm [4]; day 8): 14.3 | HW Diff. treated pipe - Control (biofilm [4]; day 9): 16.9 | HW Diff. treated pipe - Control (biofilm [4]; day 10): 15.3 | HW Diff. treated pipe - Control (biofilm [4]; day 11): 16.0 | HW Diff. treated pipe - Control (biofilm [4]; day 12): 18.1 | HW Diff. treated pipe - Control (biofilm [4]; day 13): 17.2 | HW Diff. treated pipe - Control (biofilm [4]; day 14): 15.0 | HW Diff. treated pipe - Control (biofilm [4]; day 15): 11.9 | HW Diff. treated pipe - Control (biofilm [4]; day 16): 9.1 | HW Diff. treated pipe - Control (biofilm [4]; day 17): 7.3 | HW Diff. treated pipe - Control (biofilm [4]; day 18): 7.2 | HW Difference, Fuzzicide BAC - Control (biofilm [4]; day 26 of trial, between days 7 and 26 the biocide was improperly prepared, rendering it ineffective): 6.11 | HW Difference, Fuzzicide BAC - Control (biofilm [4]; day 27 of trial (treatment day), 10 ppm as total chlorine for 3 h three times a week): 6.67 | HW Difference, Fuzzicide BAC - Control (biofilm [4]; day 28 of trial, 10 ppm as total chlorine for 3 h three times a week): 7.13 | HW Difference, Fuzzicide BAC - Control (biofilm [4]; day 29 of trial (treatment day), 10 ppm as total chlorine for 3 h three times a week): 8.75 | HW Difference, Fuzzicide BAC - Control (biofilm [4]; day 30 of trial, 10 ppm as total chlorine for 3 h three times a week): 8.93 | HW Difference, Fuzzicide BAC - Control (biofilm [4]; day 31 of trial, 10 ppm as total chlorine for 3 h three times a week): 8.93 | HW Difference, Fuzzicide BAC - Control (biofilm [4]; day 32 of trial, 10 ppm as total chlorine for 3 h three times a week): 9.02 | HW Difference, Fuzzicide BAC - Control (biofilm [4]; day 33 of trial (treatment day), 10 ppm as total chlorine for 3 h three times a week): 8.89 | HW Difference, Fuzzicide BAC - Control (biofilm [4]; day 34 of trial, 10 ppm as total chlorine for 3 h three times a week): 8.93 | HW Difference, Fuzzicide BAC - Control (biofilm [4]; day 35 of trial, 10 ppm as total chlorine for 3 h three times a week): 9.12 | HW Difference, Fuzzicide BAC - Control (biofilm [4]; day 36 of trial (treatment day), 10 ppm as total chlorine for 3 h three times a week): 10.31 | HW Difference, Fuzzicide BAC - Control (biofilm [4]; day 37 of trial, 10 ppm as total chlorine for 3 h three times a week): 9.96 | HW Difference, Fuzzicide BAC - Control (biofilm [4]; day 38 of trial, 10 ppm as total chlorine for 3 h three times a week): 13.97
